Measurements: US10030021B2, “Spirocyclic morphinans and use thereof” (Purdue Pharma L.P., priority 2014, dated 2018)

Columns and labels:
[1] = target: T1, μ-opioid receptor (Homo sapiens, UniProt P35372); assay: μ-opioid receptor [35S]GTPγS functional assay; type: biochemical; conditions: for Emax: maximal effect relative to DAMGO
T1 construct: purchased Perkin Elmer, Shelton, Conn
Method: [^35S]GTPγS functional assays were conducted using freshly thawed μ-receptor membranes (Perkin Elmer, Shelton, Conn.). Assay reactions were prepared by sequentially adding the following reagents to binding buffer (100 mM NaCl, 10 mM MgCl2, 20 mM HEPES, pH 7.4) on ice (final concentrations indicated): membrane protein (0.026 mg/mL), saponin ([…]), GDP ([…]) and [^35S]GTPγS (0.20 nM; Perkin Elmer, Shelton, Conn.). The prepared membrane solution (190 μl/well) was transferred to 96-shallow well polypropylene plates containing 10 μl of 20× concentrated stock solutions of the agonist [D-Ala^2, N-methyl-Phe^4 Gly-ol^5]-enkephalin (DAMGO) prepared in dimethyl sulfoxide (DMSO). Plates were incubated for 30 min at about 25° C. with shaking. Reactions were terminated by rapid filtration onto 96-well Unifilter GF/B filter plates (Perkin Elmer, Shelton, Conn.) using a 96-well tissue harvester (Perkin Elmer, Shelton, Conn.) followed by three filtration washes with 200 μl of ice-cold wash buffer (10 mM NaH2PO4, 10 mM Na2HPO4, pH 7.4). Filter plates were subsequently dried at 50° C. for 2-3 hours. BetaScint scintillation cocktail (Perkin Elmer, Shelton, Conn.) was added (50 μl/well) and plates were counted using a Packard Top-Count for 1 min/well. Data were analyzed using the sigmoidal dose-response curve fitting functions in GraphPad PRISM v. 3.0, or an in-house function for non-linear, sigmoidal dose-response curve-fitting.
μ GTP EC50 is the concentration of a compound providing 50% of the maximal response for the compound at a μ-opioid receptor.
μ GTP Emax (%) is the maximal effect elicited by a compound relative to the effect elicited by DAMGO, a standard agonist. Generally, the μ GTP Emax (%) value measures the efficacy of a compound to treat or prevent pain or other Conditions.

[2] = target: T2, κ opioid receptor (Homo sapiens, UniProt P41145); assay: κ-opioid receptor [35S]GTPγS functional assay; type: biochemical
T2 construct: expressed in transfected cells; host or cells: HEK-293 (inferred from the in-house κ membrane preparation)
Method: Functional [^35S]GTPγS binding assays were conducted as follows. κ opioid receptor membrane solution was prepared by sequentially adding final concentrations of 0.026 μg/μl κ membrane protein (in-house), 10 μg/mL saponin, 3 μM GDP and 0.20 nM [^35S]GTPγS to binding buffer (100 mM NaCl, 10 mM MgCl2, 20 mM HEPES, pH 7.4) on ice. The prepared membrane solution (190 μl/well) was transferred to 96-shallow well polypropylene plates containing 10 μl of 20× concentrated stock solutions of agonist prepared in DMSO. Plates were incubated for 30 min at a temperature of about 25° C. with shaking. Reactions were terminated by rapid filtration onto 96-well Unifilter GF/B filter plates (Perkin Elmer, Shelton, Conn.) using a 96-well tissue harvester (Packard) and followed by three filtration washes with 200 μl ice-cold binding buffer (10 mM NaH2PO4, 10 mM Na2HPO4, pH 7.4). Filter plates were subsequently dried at 50° C. for 2-3 hours. Fifty μ1/well scintillation cocktail (Perkin Elmer, Shelton, Conn.) was added and plates were counted in a Packard Top-Count for 1 min/well.
κ GTP EC50 is the concentration of a compound providing 50% of the maximal response for the compound at a κ receptor.
κ GTP Emax (%) is the maximal effect elicited by a compound relative to the effect elicited by U69,593.

[3] = target: T3, human kappa opioid receptor (κ) (Homo sapiens, UniProt P41145); assay: κ-opioid receptor radioligand ([3H]-U69,593) dose displacement binding assay
T3 construct: expressed in transfected cells; host or cells: HEK-293
Method: Membranes from recombinant HEK-293 cells expressing the human kappa opioid receptor (κ) (cloned in house) were prepared by lysing cells in ice cold hypotonic buffer (2.5 mM MgCl2, 50 mM HEPES, pH 7.4) (10 mL/10 cm dish) followed by homogenization with a tissue grinder/Teflon pestle. Membranes were collected by centrifugation at 30,000×g for 15 min at 4° C. and pellets were resuspended in hypotonic buffer to a final concentration of 1-3 mg/mL. Protein concentrations were determined using the BioRad protein assay reagent with bovine serum albumen as standard. Aliquots of κ receptor membranes were stored at −80° C.
Radioligand dose displacement assays used 0.4 nM [^3H]-U69,593 (GE Healthcare, Piscataway, N.J.; 40 Ci/mmole) with 15 μg membrane protein (recombinant κ opioid receptor expressed in HEK 293 cells; in-house prep) in a final volume of 200 μl binding buffer (5% DMSO, 50 mM Trizma base, pH 7.4). Non-specific binding was determined in the presence of 10 μM unlabeled naloxone or U69,593. All reactions were performed in 96-well polypropylene plates for 1 hour at a temperature of about 25° C. […] Fifty μl/well scintillation cocktail (Perkin Elmer, Shelton, Conn.) was added and plates were counted in a Packard Top-Count for 1 min/well.

T1 sequence (P35372 whole entry, species assumed): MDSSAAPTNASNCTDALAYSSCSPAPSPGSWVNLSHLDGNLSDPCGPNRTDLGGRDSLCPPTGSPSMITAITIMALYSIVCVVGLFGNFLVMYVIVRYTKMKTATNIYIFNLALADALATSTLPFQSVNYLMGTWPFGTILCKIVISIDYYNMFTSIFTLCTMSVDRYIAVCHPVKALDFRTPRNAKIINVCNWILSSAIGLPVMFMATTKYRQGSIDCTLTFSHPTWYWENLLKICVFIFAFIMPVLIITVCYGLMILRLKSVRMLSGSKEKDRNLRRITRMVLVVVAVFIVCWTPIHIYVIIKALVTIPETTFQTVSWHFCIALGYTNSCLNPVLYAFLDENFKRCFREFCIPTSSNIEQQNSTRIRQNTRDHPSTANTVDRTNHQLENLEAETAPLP
T2 sequence (P41145 whole entry): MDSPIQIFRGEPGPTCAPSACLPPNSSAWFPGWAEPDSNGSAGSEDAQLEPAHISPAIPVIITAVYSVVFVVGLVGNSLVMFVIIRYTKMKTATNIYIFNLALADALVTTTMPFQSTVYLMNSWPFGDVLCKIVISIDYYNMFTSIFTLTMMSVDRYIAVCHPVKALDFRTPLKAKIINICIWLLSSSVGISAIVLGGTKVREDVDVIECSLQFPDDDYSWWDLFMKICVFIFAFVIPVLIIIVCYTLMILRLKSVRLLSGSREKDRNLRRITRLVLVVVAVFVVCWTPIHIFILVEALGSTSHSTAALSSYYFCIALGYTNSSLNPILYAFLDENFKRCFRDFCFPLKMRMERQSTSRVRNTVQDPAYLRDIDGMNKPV
T3 sequence (P41145 whole entry): as above

Compound | EC50 [1] | Emax [1] | EC50 [2] | Emax ([2]; maximal effect relative to U69,593) | Ki [3]
CCN1C(=O)N(CC)[C@]2(CC[C@H]3[C@H]4Cc5ccc(O)cc5[C@@]3(CCN4C)C2)C1=O [Compound 21, (4S,4b′S,8a′R,9′R)-1,3-diethyl-3′-hydroxy-11′-methyl-8′,8a′,9′,10′-tetrahydro-5′H,7′H-spiro[imidazolidine-4,6′-[9,4b](epiminoethano)phenanthrene]-2,5-dione] | 54.7 ± 7.76 nM | 24.7 ± 2.46% | 221 ± 22.6 nM | 56.7 ± 3.66% | 10.5 ± 1.11 nM
COc1ccc2c(c1)[C@]13CCN(CCN(C)C)[C@H](C2)[C@]1(O)CC[C@]1(C3)C(=O)N(CC2CC2)C(=O)N1CC1CC1 [Compound 15, (4S,4b′R,8a′S,9′R)-1,3-bis(cyclopropylmethyl)-11′-(2-(dimethylamino)ethyl)-8a′-hydroxy-3′-methoxy-8′,8a′,9′,10′-tetrahydro-5′H,7′H-spiro[imidazolidine-4,6′-[9,4b]-(epiminoethano)phenanthrene]-2,5-dione] | > 20000 nM | 1% | – | – | –
CN(C)CCN1CC[C@]23C[C@@]4(CC[C@@]2(O)[C@H]1Cc1ccc(O)cc13)C(=O)N(CC1CC1)C(=O)N4CC1CC1 [Compound 25, (4S,4b′R,8a′S,9′R)-1,3-bis(cyclopropylmethyl)-11′-(2-(dimethylamino)ethyl)-3′,8a′-dihydroxy-8′,8a′,9′,10′-tetrahydro-5′H,7′H-spiro[imidazolidine-4,6′-[9,4b](epiminoethano)-phenanthrene]-2,5-dione] | > 20000 nM | 1% | – | – | –
CCN1C(=O)N(CC)[C@]2(CC[C@@]3(O)[C@H]4Cc5ccc(O)cc5[C@@]3(CCN4CCCN(C)C)C2)C1=O [Compound 27, (4S,4b′R,8a′S,9′R)-11′-(3-(dimethylamino)propyl)-1,3-diethyl-3′,8a′-dihydroxy-8′,8a′,9′,10′-tetrahydro-5′H,7′H-spiro[imidazolidine-4,6′-[9,4b](epiminoethano)phenanthrene]-2,5-dione] | > 20000 nM | 1% | – | – | –
